Assay results as given in patent US7763287B2, “Extract of Cercis chinensis having anti-oxidant activity and anti-aging activity, and cosmetical composition containing the extract for anti-oxidation, skin-aging protection and wrinkle improvement” (Hankook Pharm. Co., Inc., priority 2002, dated 2010).

Tests used:
[1] = Hydroxyl radical scavenging activity (deoxyribose/TBA, method of Halliwell); format: biochemical; settings: for Hydroxyl radical scavenging activity (%): 10 μg of sample, total volume 1 ml
Procedure: Hydroxyl radical (HO.) is generated by the reaction of a metal ion or a superoxide radical. Owing to its strong reactivity, hydroxyl radical causes oxidative damages to DNA, protein and lipid in vivo. Nitric oxide (NO.) is reacted with a superoxide radical to generate a peroxy nitrite (ONOO—), also having strong reactivity. […] Particularly, each compound was mixed with 10 μg of a sample dissolved in DMSO, phosphate buffer (20 mM, pH 7.4) 5.6 mM deoxyribose, 0.1 mM FeCl3, 1 mM H2O2 and 0.1 mM ascorbic acid, making total volume 1 ml, which was then reacted at 37° C. for 60 minutes. 250 μl of 20% TCA and 250 μl of 1% TBA solution (dissolved in 50 mM NaOH) were added to the reaction solution, followed by thermal reaction at 95° C. for 5 minutes. After completing the reaction, OD532 was measured. Hydroxyl radical scavenging activity was calculated by the below
<Mathematical Formula 3>. BHA and α-tocopherol were used for a positive control. Hydroxyl Radical Scavenging Activity (%)=(Acontrol−Asample)/(Acontrol−Ablank)×100 <Mathematical Formula 3>
Acontrol: Optical density of control group well (sample was not added),
Asample: Optical density of experimental group well (sample was added),
Ablank: Optical density of well not added with sample, TCA and TBA

[2] = Superoxide radical scavenging activity (xanthine/xanthine oxidase, NBT); format: biochemical; settings: Table 6
Procedure: Superoxide radical (O^2−) itself has a little reactivity, but is easily changed into H2O2 that generates hydroxyl radical having strong reactivity or is reacted with nitric oxide (NO.) to generate peroxy nitrite (ONOO^−) having strong reactivity, too. Thus, it might be a reason for oxidation of SH-group, nitration of protein tyrosine, lipid peroxidation and DNA damage. […] Basically, measurement of superoxide radical scavenging activity was performed by investigating the activity of superoxide dismutase (SOD), an enzyme scavenging superoxide by dismutation of the same. In the present invention, an activity of a sample to inhibit superoxide production by the enzyme reaction of xanthine/xanthine oxidase and its another activity to inhibit reaction (NBT+20^2−→NBTH2+2O2) generating formazan by reduction of nitro blue tetrazolium (referred as ‘NBT’ hereinafter) were measured. Particularly, wells of a 96-well plate were supplemented with 50 μl of 4 mM xanthine (Sigma), 50 μl of […] NBT (Sigma), 50 μl of 50 mM phosphate buffer (pH 7.8, 1 mM EDTA) and 10 μl of each sample, into which 40 μl of xanthine oxidase was added to induce a reaction. After the reaction was completed, each reaction solution was collected as scheduled, and OD550 was measured with an ELISA reader. […] Superoxide Radical Scavenging Activity (%)=(Acontrol−Asample)/(Acontrol−Ablank)×100 <Mathematical Formula 4> […]

[3] = DPPH radical scavenging activity; format: biochemical; settings: for DPPH radical scavenging activity IC50: Table 3
Procedure: In order to extract an effective ingredient having an anti-oxidant activity from Cercis chinensis, an experiment was performed following the procedure represented in a schematic diagram of FIG. 1. Particularly, 1 kg of leaves and stems of Cercis chinensis, dried in shadow, were grinded to powder using a pulverizer, which was extracted by ethanol (EtOH) at room temperature twice at intervals of two weeks. For the extraction, ethanol solutions were prepared by adding ethanol gradually, 10% at a time, from 0% to 100%. The prepared ethanol solutions were used for the extraction. […] But, it looses absorbance when being scavenged. Based on that point, an anti-oxidant activity can be measured using DPPH. […] Then, each solution was distributed into a 96 well plate by 10 μl each, into which 190 μl of DPPH(Sigma, St. Louis, Mo, USA) solution whose ethanol concentration was 2×10^−4 M/ml was added. The plate was just left at room temperature for 30 minutes. Finally, OD517 was measured at 517 nm. For a control, DMSO was added instead of the sample, and changes of optical density were investigated. […] DDPH Radical Scavenging Activity (%)=(Acontrol−Asample)/(Acontrol)×100 <Mathematica Formula 1>
Acontrol: Optical density of control group (sample was not added),
Asample: Optical density of experimental group (sample was added).
In order to identify a fraction having an anti oxidant activity among hexane Fr, EtOAc Fr and BuOH Fr obtained above, a DPPH radical scavenging activity was measured using each extract of each fraction following the method used above. At this time, vitamin E, known to have high DPPH radical scavenging activity, was used as a comparing group.
At this time, BHA (tert-butyl-4 hydroxyanisole) and α-tocopherol, synthetic anti-oxidant agents, were used as positive controls.

[4] = tested on: rat brain homogenates; test: Lipid peroxidation inhibitory activity (Fe2+/ascorbic acid, TBA method); settings: Table 4
[5] = tested on: HEK-N/F cells; test: Protection of cells from oxidative damage induced by t-butylhydroperoxide; format: cell-based, human; settings: 1.5 mM t-butylhydroperoxide 3 hours; for TBARS (pmol/mg protein): compound 50.0 µg/ml
Procedure: t-butylhydroperoxide is metabolized into a free radical intermediate as it comes in a cell, so that it causes lipid peroxidation, resulting in cell damage. This phenomenon is similar to that caused by oxidataive stress accumulated in cells and tissues. […] HEK-N/F, an epidermal cell line of a newborn baby, was treated with 1.5 mM of t-butylhydroxyperoxide for 3 hours.

[6] = Nitric oxide scavenging activity; format: biochemical; set-up: Nitric oxide scavenging activity (%): concentration or dose not given beside the values

Molecule	Hydroxyl radical scavenging activity (%) [1] [%]	Superoxide radical scavenging activity IC50 [2] [µg/mL]	DPPH radical scavenging activity IC50 [3] [µg/mL]	Lipid Peroxidation Inhibitory Activity IC50 [4] [µg/mL]	Cell survival rate (%) [5] [%]	TBARS (pmol/mg protein) [5] [pmol/mg protein]	Nitric oxide scavenging activity (%) [6] [%]	Hydroxyl radical scavenging activity (in words) [1]	DPPH radical scavenging activity (in words) [3]	Nitric oxide scavenging activity (in words) [6]
COc1cc(C2c3c(cc(OC)c(O)c3OC)CC(CO)C2CO[C@@H]2O[C@H](CO)[C@@H](O)[C@H](O)[C@H]2O)cc(OC)c1O (single isomer, unassigned; (+)) [Chemical Formula 20, (+)-lyoniresiol 3a-O-β-D-glucopyranoside]	8.1	>100	42.6 ± 3.1	39.10 ± 3.11	12.9 ± 2.1	7635.7 ± 631.2	0.8 ± 0.8	–	–	–
COc1cc(C2c3c(cc(OC)c(O)c3OC)CC(CO)C2CO[C@@H]2OC[C@@H](O)[C@H](O)[C@H]2O)cc(OC)c1O (single isomer, unassigned; (-)) [Chemical Formula 19, (−)-lyoniresinol 3a-O-β-D-xylopyranoside]	7.3	>100	45.7 ± 4.0	37.42 ± 2.06	13.5 ± 2.0	5981.1 ± 412.6	0.8 ± 0.6	–	–	–
COC(=O)c1cc(O)c(O)c(O)c1 [Chemical Formula 7, methyl gallate]	43.8	16.5 ± 1.4	5.3 ± 0.3	7.05 ± 0.87	43.0±5.6	1024.4 ± 91.9	32.6 ± 2.8	remarkably higher hydroxyl radical scavenging activities	–	–
CCOC(=O)c1cc(O)c(O)c(O)c1 [Chemical Formula 8, ethyl gallate]	44.0	15.8 ± 1.6	7.0 ± 1.0	7.01 ± 0.62	43.1±4.1	1115.6 ± 96.2	33.4 ± 2.1	remarkably higher hydroxyl radical scavenging activities	–	–
CC1OC(Oc2c(-c3cc(O)c(O)c(O)c3)oc3cc(O)cc(O)c3c2=O)C(OC(=O)c2cc(O)c(O)c(O)c2)C(O)C1O [Chemical Formula 13, myricetin-3-O-(2″-O-galloyl)-α-L-rhamnopyranoside]	45.4	13.2 ± 2.5	8.6 ± 0.7	4.73 ± 0.41	45.1 ± 3.6	1019.8 ± 154.0	23.0 ± 0.6	remarkably higher hydroxyl radical scavenging activities	–	–
COc1cc(-c2oc3cc(O)cc(O)c3c(=O)c2O[C@@H]2O[C@H](CO[C@@H]3O[C@@H](C)[C@H](O)[C@@H](O)[C@H]3O)[C@@H](O)[C@H](O)[C@H]2O)cc(OC)c1O [Chemical Formula 14, syringetin-3-O-rutinoside]	10.2	45.2 ± 2.2	35.1 ± 1.5	19.0 ± 1.52	20.0 ± 2.6	2928.1 ± 209.9	6.0 ± 0.8	–	–	–
Oc1cc(O)c2c(c1)O[C@H](c1ccc(O)c(O)c1)[C@@H](O)C2 [Chemical Formula 16, (+)-catechin]	12.7	16.5 ± 2.0	15.6 ± 0.8	4.71 ± 0.26	24.5 ± 1.9	1912.4 ± 112.0	16.9 ± 1.1	–	strong radical scavenging activity	comparatively high nitric oxide scavenging activity
(−)-epicatechin-3-O-gallate [Chemical Formula 17]	39.9	11.9 ± 2.1	6.8 ± 0.5	2.90 ± 0.06	49.4 ± 6.4	1007.3 ± 95.2	25.4 ± 1.2	remarkably higher hydroxyl radical scavenging activities	–	comparatively high nitric oxide scavenging activity
(−)-epigallocatechin-3-O-gallate [Chemical Formula 18]	54.0	24.0 ± 3.5	6.7 ± 0.4	1.00 ± 0.08	46.6 ± 5.9	1032.6 ± 103.5	26.2 ± 0.9	remarkably higher hydroxyl radical scavenging activities	–	comparatively high nitric oxide scavenging activity
